# Data taken from patent publication US20260176270A1 (Exelixis, Inc., priority 2022, published 2026).
# Read-outs that look alike come from different tables or passages of the source.
# Assays:
# PKMYT1 = target: T1, PKMYT1 (Homo sapiens, UniProt Q99640); assay: ADP-Glo PKMYT1 ATP-depletion assay; settings: 50 nM PKMYT1, 13.3 nM CDK1, read-out: Biochemical IC50
# T1 construct: PKMYT1 (93 kD, full length, N-terminal GST tag from Signal Chem); GST (N); purchased Signal Chem
# T1 sequence (Q99640 1-499): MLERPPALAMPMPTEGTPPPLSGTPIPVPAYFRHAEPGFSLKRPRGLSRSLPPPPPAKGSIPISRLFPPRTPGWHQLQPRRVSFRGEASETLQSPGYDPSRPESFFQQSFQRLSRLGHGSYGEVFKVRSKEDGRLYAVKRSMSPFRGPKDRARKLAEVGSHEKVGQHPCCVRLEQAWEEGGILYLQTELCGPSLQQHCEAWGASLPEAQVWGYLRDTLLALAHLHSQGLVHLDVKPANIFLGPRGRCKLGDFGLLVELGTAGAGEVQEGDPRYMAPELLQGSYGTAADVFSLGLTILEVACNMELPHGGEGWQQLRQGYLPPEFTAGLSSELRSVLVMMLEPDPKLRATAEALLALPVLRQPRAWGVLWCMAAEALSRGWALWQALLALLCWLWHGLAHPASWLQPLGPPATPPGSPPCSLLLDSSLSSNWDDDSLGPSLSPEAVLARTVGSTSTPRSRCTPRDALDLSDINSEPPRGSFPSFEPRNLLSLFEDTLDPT
# Method in brief: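 Full-length N-terminal GST-tagged PKMYT1 (50 nM) with GST-CDK1 (13.3 nM) as substrate and 88 µM ATP, in Hepes buffer with MgCl2, MnCl2, DTT and BSA; DMSO <1%. Incubated 120 min at RT. ADP formed was quantified by ADP-Glo luminescence and used to derive biochemical IC50.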
# [1] = system: phosphorylation of CDK1 at Thr14 in HCC1806 cells; assay: Cell lysate AlphaLISA assay measuring inhibition of phosphorylation of CDK1 Thr14; format: cell-based; settings: read-out: Cellular IC50
# Method in brief: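 HCC1806 cells seeded overnight, then treated 4 h at 37 °C, 5% CO2 with compounds in DMSO; washed and lysed, lysates frozen overnight at −80 °C. CDK1 Thr14 phosphorylation read by AlphaLISA SureFire Ultra; data normalized to DMSO (0% inhibition) and 3 μM reference compound to give IC50.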
SMILES,IC50 (PKMYT1),"IC50 ([1]; Homo sapiens, HCC1806, 4 h)",IC50 ([1]; 4 hours)
NC(=O)c1cc2nccnc2c(-c2cccc3sncc23)c1N [Compound 214],500 to 1000 nM,≥ 5000 nM,
"NC(=O)c1cc(-c2cccc3[nH]ncc23)c2nccnc2c1 [Compound 75, 8-(1H-indazol-4-yl)quinoxaline-6-carboxamide]",≥ 5000 nM,≥ 5000 nM,
COc1ccc2nc(C(N)=O)c(N)c(-c3cc(O)ncc3C)c2n1 [Compound 315],≥ 5000 nM,≥ 5000 nM,
Cc1cnncc1-c1c(N)c(C(N)=O)nc2cccnc12 [Compound 257],≥ 5000 nM,≥ 5000 nM,
"Cc1c(O)cccc1-c1c(N)c(C(N)=O)nc2cc(Cl)ccc12 [Compound 37, 3-Amino-7-chloro-4-(3-hydroxy-2-methylphenyl)quinoline-2-carboxamide]",1000 to 5000 nM,1000 to 5000 nM,
Cc1c(O)cccc1-c1c(N)c(C(N)=O)cc2c1ncc(=O)n2C [Compound 219],1000 to 5000 nM,≥ 5000 nM,
"NC(=O)c1cc2nccnc2c(-c2cc(O)cnc2Cl)c1N [Compound 122, 7-Amino-8-(2-chloro-5-hydroxy-3-pyridyl)quinoxaline-6-carboxamide]",1000 to 5000 nM,≥ 5000 nM,
"Cc1ccc(O)c(C)c1-c1c(N)c(C(N)=O)nc2ccccc12 (atropisomer, axis not shown; (P)) [Compound 45, (P)-3-amino-4-(3-hydroxy-2,6-dimethylphenyl)quinoline-2-carboxamide]",1000 to 5000 nM,,≥ 5000 nM
NC(=O)c1nc2cccnc2c(-c2cnccc2C(F)(F)F)c1N [Compound 259],500 to 1000 nM,≥ 5000 nM,
Cc1cc2nc(N)sc2cc1-c1c(N)c(C(N)=O)cc2nccnc12 [Compound 311],1000 to 5000 nM,≥ 5000 nM,
"NC(=O)c1cc2nccnc2c(-c2cc(O)cnc2Cl)c1N (atropisomer, axis not shown) [Compound 163]",1000 to 5000 nM,,≥ 5000 nM
"COc1ccnc2c(-c3cccc(O)c3C)c(N)c(C(N)=O)cc12 (atropisomer, axis not shown) [Compound 325]",1000 to 5000 nM,,1000 to 5000 nM
"Cc1c(O)cccc1-c1cc(C(N)=O)cc2nccnc12 [Compound 80, 8-(3-Hydroxy-2-methylphenyl)quinoxaline-6-carboxamide]",1000 to 5000 nM,≥ 5000 nM,
"COc1cccc(-c2c(N)c(C(N)=O)nc3cccnc23)c1C [Compound 1, 3-Amino-4-(3-methoxy-2-methylphenyl)-1,5-naphthyridine-2-carboxamide]",≥ 5000 nM,≥ 5000 nM,
"Cc1cc(O)c(C)c(-c2c(N)c(C(N)=O)nc3cccnc23)c1 (atropisomer, axis not shown) [Compound 285]",≥ 5000 nM,≥ 5000 nM,
NC(=O)c1nc2cccnc2c(-c2cccc3c2CC(=O)N3)c1N [Compound 293],≥ 5000 nM,≥ 5000 nM,
"Cc1ccc(O)c(C)c1-c1c(N)c(C(N)=O)nc2cccnc12 (single isomer, unassigned) [Compound 10, (M)-3-amino-4-(3-hydroxy-2,6-dimethylphenyl)-1,5-naphthyridine-2-carboxamide]",500 to 1000 nM,,1000 to 5000 nM
"Cc1ccc(O)c(C)c1-c1c(N)c(C(N)=O)nc2c(C)cccc12 (single isomer, unassigned) [Compound 33]",1000 to 5000 nM,,≥ 5000 nM
Cc1c(O)cccc1-c1cc(C(N)=O)nc2ccccc12 [Compound 13],1000 to 5000 nM,≥ 5000 nM,
"NC(=O)c1nc2cccnc2c(-c2c(F)ccc3[nH]ncc23)c1N (atropisomer, axis not shown) [Compound 245]",≥ 5000 nM,,≥ 5000 nM
Cc1ncccc1-c1c(N)c(C(N)=O)nc2cccnc12 [Compound 207],≥ 5000 nM,≥ 5000 nM,
COc1ccc2nc(C(N)=O)c(N)c(-c3cncc(C(F)F)c3C)c2n1 [Compound 314],500 to 1000 nM,≥ 5000 nM,
"Cc1ccc(O)c(C)c1-c1c(N)c(C(N)=O)nc2cc(F)ccc12 [Compound 43, 3-Amino-7-fluoro-4-(3-hydroxy-2,6-dimethylphenyl)quinoline-2-carboxamide]",50 to 500 nM,1000 to 5000 nM,
NC(=O)c1nc2cccnc2c(-c2cncc3sccc23)c1N [Compound 230],50 to 500 nM,1000 to 5000 nM,
"NC(=O)c1cc2nccnc2c(-c2cccc(O)c2Cl)c1N (single isomer, unassigned) [Compound 106, (M)-7-amino-8-(2-chloro-3-hydroxyphenyl)quinoxaline-6-carboxamide]",≥ 5000 nM,,≥ 5000 nM
"Cc1ccc(O)cc1-c1c(N)c(C(N)=O)cc2nccnc12 [Compound 123, 7-Amino-8-(5-hydroxy-2-methylphenyl)quinoxaline-6-carboxamide]",50 to 500 nM,,1000 to 5000 nM
Cc1cncc(C2=c3ncccc3=NC(C(N)=O)C2N)c1C (stereo not drawn) [Compound 211],500 to 1000 nM,1000 to 5000 nM,
"NC(=O)c1nc2c(c(-c3cc(O)cnc3F)c1N)NCCC2 (atropisomer, axis not shown) [Compound 294]",1000 to 5000 nM,≥ 5000 nM,

# Further lines, results first:
IC50 (PKMYT1),"IC50 ([1]; Homo sapiens, HCC1806, 4 h)",IC50 ([1]; 4 hours),SMILES
< 50 nM,,50 to 500 nM,"Cc1ccc(-c2c(N)c(C(N)=O)nc3cccnc23)c(C)c1O (atropisomer, axis not shown) [Compound 288]"
50 to 500 nM,,1000 to 5000 nM,"Cc1c(O)cccc1-c1c(N)c(C(N)=O)cc2nc(C(F)(F)F)cnc12 [Compound 96, 7-Amino-8-(3-hydroxy-2-methylphenyl)-3-(trifluoromethyl)quinoxaline-6-carboxamide]"
< 50 nM,50 to 500 nM,,"Cc1c(O)cccc1-c1c(N)c(C(N)=O)nc2nccnc12 [Compound 11, 7-Amino-8-(3-hydroxy-2-methylphenyl)pyrido[2,3-b]pyrazine-6-carboxamide]"
50 to 500 nM,50 to 500 nM,,"COc1ccc2nc(C(N)=O)c(N)c(-c3c(C)ccc(O)c3C)c2c1 [Compound 48, 3-Amino-4-(3-hydroxy-2,6-dimethylphenyl)-6-methoxyquinoline-2-carboxamide]"
50 to 500 nM,1000 to 5000 nM,,CCNc1cnc2c(-c3c(C)ccc(O)c3C)c(N)c(C(N)=O)cc2n1 [Compound 326]
< 50 nM,50 to 500 nM,,"Cc1ccc(O)c(C)c1-c1c(N)c(C(N)=O)cc2nc(C)c(C)nc12 [Compound 94, 7-Amino-8-(3-hydroxy-2,6-dimethylphenyl)-2,3-dimethylquinoxaline-6-carboxamide]"
< 50 nM,50 to 500 nM,,"Cc1c(O)cccc1-c1c(N)c(C(N)=O)nc2cccnc12 [Compound 2, 3-Amino-4-(3-hydroxy-2-methylphenyl)-1,5-naphthyridine-2-carboxamide]"
50 to 500 nM,500 to 1000 nM,,COc1cncc(C2=c3ncccc3=NC(C(N)=O)C2N)c1C (stereo not drawn) [Compound 186]
50 to 500 nM,,1000 to 5000 nM,"Cc1c(O)cccc1-c1c(N)c(C(N)=O)cc2nc(C(F)(F)F)c(O)nc12 (atropisomer, axis not shown) [Compound 135]"
50 to 500 nM,,1000 to 5000 nM,"Cc1ccc(O)c(C)c1-c1c(N)c(C(N)=O)nc2ccc(F)cc12 [Compound 20, 3-Amino-6-fluoro-4-(3-hydroxy-2,6-dimethylphenyl)quinoline-2-carboxamide]"
< 50 nM,,50 to 500 nM,"Cc1c(O)cccc1-c1c(N)c(C(N)=O)cc2ncc(C(F)(F)F)nc12 (single isomer, unassigned) [Compound 124, (P)-7-Amino-8-(3-hydroxy-2-methylphenyl)-2-(trifluoromethyl)quinoxaline-6-carboxamide]"
< 50 nM,,50 to 500 nM,"Cc1c(O)cccc1-c1c(N)c(C(N)=O)cc2nccnc12 (single isomer, unassigned) [Compound 87, (P)-7-Amino-8-(3-hydroxy-2-methylphenyl)quinoxaline-6-carboxamide]"
< 50 nM,,50 to 500 nM,"Cc1c(O)cccc1-c1c(N)c(C(N)=O)nc2cc(C(F)(F)F)cnc12 (atropisomer, axis not shown) [Compound 166]"
50 to 500 nM,,500 to 1000 nM,"Cc1c(O)cccc1-c1c(N)c(C(N)=O)cc2ncccc12 (atropisomer, axis not shown; (M)) [Compound 68, (M)-6-Amino-5-(3-hydroxy-2-methylphenyl)quinoline-7-carboxamide]"
< 50 nM,,50 to 500 nM,Cc1c(O)cccc1-c1c(N)c(C(N)=O)nc2cc(C(F)(F)F)cnc12 [Compound 161]
< 50 nM,,500 to 1000 nM,"COc1nc2c(-c3cccc(O)c3C)c(N)c(C(N)=O)cc2nc1C (atropisomer, axis not shown) [Compound 218]"
< 50 nM,,50 to 500 nM,"Cc1c(-c2c(N)c(C(N)=O)cc3nccnc23)ccc(F)c1O (atropisomer, axis not shown) [Compound 295]"
